# Molecular target: T1, mTRPC4ß (Mus musculus, UniProt Q9QUQ5)
# T1 construct: expressed in transfected cells
# T1 sequence (Q9QUQ5 1-890 isoform Q9QUQ5-2): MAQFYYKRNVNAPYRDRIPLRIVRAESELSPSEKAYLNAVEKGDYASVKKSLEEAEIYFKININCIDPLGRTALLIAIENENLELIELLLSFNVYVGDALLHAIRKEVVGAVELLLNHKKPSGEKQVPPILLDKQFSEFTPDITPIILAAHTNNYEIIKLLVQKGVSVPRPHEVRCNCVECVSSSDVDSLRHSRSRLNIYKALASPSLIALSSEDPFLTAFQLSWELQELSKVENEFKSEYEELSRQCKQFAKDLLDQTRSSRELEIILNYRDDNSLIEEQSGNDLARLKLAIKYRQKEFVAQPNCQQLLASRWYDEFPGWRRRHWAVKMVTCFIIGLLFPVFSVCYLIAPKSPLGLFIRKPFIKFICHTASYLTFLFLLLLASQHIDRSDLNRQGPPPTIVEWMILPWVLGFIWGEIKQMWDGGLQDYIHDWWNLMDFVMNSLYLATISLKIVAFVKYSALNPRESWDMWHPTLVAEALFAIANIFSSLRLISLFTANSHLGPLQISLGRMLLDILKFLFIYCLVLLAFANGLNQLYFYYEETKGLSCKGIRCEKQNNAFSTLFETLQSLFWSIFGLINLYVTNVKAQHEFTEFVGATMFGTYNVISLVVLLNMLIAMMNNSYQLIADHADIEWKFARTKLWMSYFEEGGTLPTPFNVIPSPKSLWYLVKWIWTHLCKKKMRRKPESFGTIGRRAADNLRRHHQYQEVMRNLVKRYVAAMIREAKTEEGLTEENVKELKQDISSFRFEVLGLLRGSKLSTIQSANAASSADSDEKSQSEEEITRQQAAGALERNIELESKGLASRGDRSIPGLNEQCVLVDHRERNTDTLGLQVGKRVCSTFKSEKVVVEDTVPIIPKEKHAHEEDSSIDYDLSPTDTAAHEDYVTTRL
# Assay: Whole-cell patch clamp, TRPC4 currents
# Assay type: cell-based
# Details: 10 µM; not separable from current run-down
# Experimental: Cells were grown at 37°C in a humidified atmosphere (5% or 7% CO2) under standard cell culture conditions. Stable human embryonic kidney (HEK) cell lines expressing recombinant mTRPC4ß (GenBank accession number AAC05178); mTRPC5 (GenBank accession number NM_009428) or hTRPC6 (GenBank accession number AF080394) under the control of a tetracycline-inducible promoter were generated using the Flp-In T-Rex (FITR) system (Invitrogen, Karlsruhe, Germany). TRPC4/5/6 HEK-FITR cells were maintained in Dulbecco's modified eagle medium (DMEM, with glutaMAX I, 4.5 g/l glucose and […] sodium pyruvate) supplemented with 10% (v/v) fetal bovine serum (Biochrom, Berlin, Germany), 1 mM glutamine, 1 mM MEM sodium pyruvate, 40 µg/ml hygromycin (50 µg/ml for mTRPC5 HEK-FITR cells), and 15 µg/ml blasticidine HCl. Channel expression was induced by supplementing the growth medium for 18–24 h with 1 µg/ml doxycycline.
# The whole-cell patch clamp technique was employed to measure ion currents from single cells. […]
# Cells grown on poly-L-lysine-coated coverslips were continuously superfused with extracellular solution and substances were applied using an ALA BPS-8 perfusion system (ALA Scientific Instruments, Westbury, USA). […] Cells were held at −70 mV, and current-voltage (I–V) relationships were routinely measured every 2 or 3 s by applying voltage ramps (180 ms) from −100 mV to +80 mV. […]
smiles,measurement,value
C#C[C@]1(OC(C)=O)CC[C@H]2[C@@H]3CCC4=CC(=NO)CC[C@@H]4[C@H]3CC[C@@]21CC (mixture of isomers) [norgestimate],Effect on TRPC4 currents,"apparently small, irreversible"
